{"source": "patent US20100143890A1", "about": "(priority 2008, published 2010)", "tested_on": "AI virus proteins (3425P and 3427P, ProSci Inc.); H5 protein", "assay_type": "binding, avian influenza virus"}
{"compound": "CC(=O)NC1C(O)CC(OCC2OC(OC3C(CO)OC(O)C(O)C3O)C(O)C(O)C2O)(C(=O)O)OC1C(O)C(O)CO", "note": "(centres unmarked) [6′-sialic lactose]", "values": [{"measurement": "binding properties compared with commercially available antibody", "result": "not active"}]}
{"compound": "CC(=O)N[C@H]1[C@H]([C@H](O)[C@H](O)CO)O[C@@](O[C@H]2[C@@H](O)[C@@H](CO)O[C@@H](O[C@H]3[C@H](O)[C@@H](O)C(O)O[C@@H]3CO)[C@@H]2O)(C(=O)O)C[C@@H]1O", "note": "(some centres unmarked) [3-silaiic-lactose]", "values": [{"measurement": "binding properties compared with commercially available antibody", "result": "not active"}]}
